The source of these data is BindingDB's records for doi:10.1128/AAC.01311-05 (Microbiotix, 2007).

The structures appear in SMILES notation.

Experiment [1] has as its target DNA polymerase III subunit alpha (Escherichia coli (strain K12), UniProt P10443). Put plainly: DNA Polymerase Activity Assay. Conditions: pH 7.5; 30 °C. How it is done:
(§1) Reaction velocities were determined at each dGTP concentration and used to create double reciprocal plots of velocity versus dGTP concentration. The plots were used to assess the mechanism of inhibition and calculate the apparent Ki value for the inhibitor.

For experiment [2], the target named is DNA polymerase III subunit alpha (Bacillus subtilis (strain 168), UniProt O34623). Briefly: DNA Polymerase Activity Assay. Conditions: pH 7.5; 30 °C. On the procedure:
as §1

Experiment [3] concerns the target T1, DNA polymerase alpha subunit B (Bos taurus, UniProt Q58D13).
T1 sequence (Q58D13 whole entry): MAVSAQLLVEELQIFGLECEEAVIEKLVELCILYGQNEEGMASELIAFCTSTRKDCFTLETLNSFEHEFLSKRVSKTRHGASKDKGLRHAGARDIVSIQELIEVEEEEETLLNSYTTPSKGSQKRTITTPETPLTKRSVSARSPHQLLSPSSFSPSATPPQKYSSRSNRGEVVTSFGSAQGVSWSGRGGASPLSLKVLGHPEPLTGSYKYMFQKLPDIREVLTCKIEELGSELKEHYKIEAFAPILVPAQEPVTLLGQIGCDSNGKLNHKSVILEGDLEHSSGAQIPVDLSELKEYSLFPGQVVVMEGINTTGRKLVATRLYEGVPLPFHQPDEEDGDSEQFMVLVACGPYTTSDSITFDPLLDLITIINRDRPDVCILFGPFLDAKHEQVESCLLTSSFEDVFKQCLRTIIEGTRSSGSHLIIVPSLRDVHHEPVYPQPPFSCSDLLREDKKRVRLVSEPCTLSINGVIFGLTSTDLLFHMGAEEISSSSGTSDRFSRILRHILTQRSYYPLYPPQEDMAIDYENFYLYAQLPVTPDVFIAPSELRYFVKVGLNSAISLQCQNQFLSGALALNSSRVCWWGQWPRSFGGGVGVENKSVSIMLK
Briefly: DNA Polymerase Activity Assay. Conditions: pH 7.5; 37 °C. How it is done:
as §1

The target in experiment [4] is DNA topoisomerase 4 subunit A [V210L]/B (Bacillus subtilis, UniProt Q45066+Q59192, V210L). Put plainly: DNA Topoisomerase IV Assay. Conditions: pH 7.5; 30 °C.
Chain of DNA topoisomerase 4 subunit A [V210L]/B (Q45066 whole entry V210L): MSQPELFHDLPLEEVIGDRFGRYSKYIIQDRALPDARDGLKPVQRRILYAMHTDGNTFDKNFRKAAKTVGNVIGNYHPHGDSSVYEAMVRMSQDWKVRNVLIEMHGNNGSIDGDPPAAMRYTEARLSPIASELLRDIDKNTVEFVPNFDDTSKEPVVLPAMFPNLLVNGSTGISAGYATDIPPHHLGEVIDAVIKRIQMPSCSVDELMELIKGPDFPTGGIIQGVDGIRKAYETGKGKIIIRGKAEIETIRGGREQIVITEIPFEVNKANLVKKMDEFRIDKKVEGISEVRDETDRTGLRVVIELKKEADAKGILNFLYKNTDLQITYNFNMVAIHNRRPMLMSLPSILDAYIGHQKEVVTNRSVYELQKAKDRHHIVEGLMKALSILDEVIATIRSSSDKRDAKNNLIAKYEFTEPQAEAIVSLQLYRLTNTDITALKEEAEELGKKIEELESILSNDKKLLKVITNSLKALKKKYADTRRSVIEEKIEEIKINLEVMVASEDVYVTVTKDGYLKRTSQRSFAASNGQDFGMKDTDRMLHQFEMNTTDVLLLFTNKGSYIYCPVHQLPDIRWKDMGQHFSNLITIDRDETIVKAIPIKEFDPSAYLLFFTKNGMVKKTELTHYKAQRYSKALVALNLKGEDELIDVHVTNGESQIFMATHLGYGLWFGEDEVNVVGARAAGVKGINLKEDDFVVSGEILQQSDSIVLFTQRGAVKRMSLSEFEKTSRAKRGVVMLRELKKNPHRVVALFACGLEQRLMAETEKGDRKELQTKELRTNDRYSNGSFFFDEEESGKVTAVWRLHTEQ
Chain of DNA topoisomerase 4 subunit A [V210L]/B (Q59192 whole entry): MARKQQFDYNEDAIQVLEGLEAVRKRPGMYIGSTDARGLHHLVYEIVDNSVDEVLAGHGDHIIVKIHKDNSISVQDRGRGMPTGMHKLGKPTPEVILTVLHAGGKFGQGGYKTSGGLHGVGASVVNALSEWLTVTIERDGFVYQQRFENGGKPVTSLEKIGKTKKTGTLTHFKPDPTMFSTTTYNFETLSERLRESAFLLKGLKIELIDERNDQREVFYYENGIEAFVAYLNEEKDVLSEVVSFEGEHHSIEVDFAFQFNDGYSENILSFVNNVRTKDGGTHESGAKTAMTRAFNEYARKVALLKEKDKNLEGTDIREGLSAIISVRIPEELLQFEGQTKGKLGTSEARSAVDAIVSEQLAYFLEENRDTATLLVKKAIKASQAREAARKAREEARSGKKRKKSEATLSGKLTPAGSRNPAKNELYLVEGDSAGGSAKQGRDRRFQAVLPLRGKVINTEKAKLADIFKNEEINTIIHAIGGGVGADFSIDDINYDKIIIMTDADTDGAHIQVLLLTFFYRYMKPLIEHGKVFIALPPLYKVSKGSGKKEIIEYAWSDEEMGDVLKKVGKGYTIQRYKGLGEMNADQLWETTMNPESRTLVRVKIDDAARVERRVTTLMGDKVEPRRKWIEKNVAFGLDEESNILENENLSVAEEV
For experiment [5], the target named is DNA gyrase subunit A/B (Bacillus subtilis (strain 168), UniProt P05652+P05653). Briefly: DNA Gyrase Activity Assay. Conditions: pH 7.5; 30 °C.

Chain of DNA polymerase III subunit alpha (Bacillus subtilis (strain 168), UniProt O34623) (O34623 whole entry): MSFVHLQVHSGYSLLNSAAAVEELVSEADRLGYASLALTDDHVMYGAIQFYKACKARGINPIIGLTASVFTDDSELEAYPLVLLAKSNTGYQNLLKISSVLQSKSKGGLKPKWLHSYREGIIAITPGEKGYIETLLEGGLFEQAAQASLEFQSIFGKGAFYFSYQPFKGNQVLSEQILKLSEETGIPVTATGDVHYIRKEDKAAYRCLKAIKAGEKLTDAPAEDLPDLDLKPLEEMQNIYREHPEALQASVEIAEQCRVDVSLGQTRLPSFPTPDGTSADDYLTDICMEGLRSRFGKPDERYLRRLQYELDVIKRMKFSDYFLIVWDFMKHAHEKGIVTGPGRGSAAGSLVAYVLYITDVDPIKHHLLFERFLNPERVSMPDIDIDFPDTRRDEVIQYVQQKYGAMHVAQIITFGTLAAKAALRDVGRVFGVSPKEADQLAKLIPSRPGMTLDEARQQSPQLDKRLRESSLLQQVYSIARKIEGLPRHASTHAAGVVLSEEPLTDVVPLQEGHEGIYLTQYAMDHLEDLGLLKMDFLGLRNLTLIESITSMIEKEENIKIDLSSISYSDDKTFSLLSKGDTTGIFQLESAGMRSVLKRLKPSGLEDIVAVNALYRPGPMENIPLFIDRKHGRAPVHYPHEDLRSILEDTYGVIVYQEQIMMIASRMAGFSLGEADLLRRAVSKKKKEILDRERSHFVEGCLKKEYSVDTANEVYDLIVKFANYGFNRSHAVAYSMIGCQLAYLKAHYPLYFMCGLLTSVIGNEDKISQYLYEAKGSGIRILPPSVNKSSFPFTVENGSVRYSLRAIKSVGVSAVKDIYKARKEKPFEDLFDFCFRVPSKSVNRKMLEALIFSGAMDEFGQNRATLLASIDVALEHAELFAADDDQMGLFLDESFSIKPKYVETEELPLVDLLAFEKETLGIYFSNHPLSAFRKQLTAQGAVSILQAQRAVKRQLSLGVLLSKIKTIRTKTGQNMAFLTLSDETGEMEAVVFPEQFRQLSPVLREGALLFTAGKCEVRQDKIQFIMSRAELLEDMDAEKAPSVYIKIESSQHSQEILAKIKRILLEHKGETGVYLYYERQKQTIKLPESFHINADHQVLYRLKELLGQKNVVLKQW
Chain of DNA polymerase III subunit alpha (Escherichia coli (strain K12), UniProt P10443) (P10443 whole entry): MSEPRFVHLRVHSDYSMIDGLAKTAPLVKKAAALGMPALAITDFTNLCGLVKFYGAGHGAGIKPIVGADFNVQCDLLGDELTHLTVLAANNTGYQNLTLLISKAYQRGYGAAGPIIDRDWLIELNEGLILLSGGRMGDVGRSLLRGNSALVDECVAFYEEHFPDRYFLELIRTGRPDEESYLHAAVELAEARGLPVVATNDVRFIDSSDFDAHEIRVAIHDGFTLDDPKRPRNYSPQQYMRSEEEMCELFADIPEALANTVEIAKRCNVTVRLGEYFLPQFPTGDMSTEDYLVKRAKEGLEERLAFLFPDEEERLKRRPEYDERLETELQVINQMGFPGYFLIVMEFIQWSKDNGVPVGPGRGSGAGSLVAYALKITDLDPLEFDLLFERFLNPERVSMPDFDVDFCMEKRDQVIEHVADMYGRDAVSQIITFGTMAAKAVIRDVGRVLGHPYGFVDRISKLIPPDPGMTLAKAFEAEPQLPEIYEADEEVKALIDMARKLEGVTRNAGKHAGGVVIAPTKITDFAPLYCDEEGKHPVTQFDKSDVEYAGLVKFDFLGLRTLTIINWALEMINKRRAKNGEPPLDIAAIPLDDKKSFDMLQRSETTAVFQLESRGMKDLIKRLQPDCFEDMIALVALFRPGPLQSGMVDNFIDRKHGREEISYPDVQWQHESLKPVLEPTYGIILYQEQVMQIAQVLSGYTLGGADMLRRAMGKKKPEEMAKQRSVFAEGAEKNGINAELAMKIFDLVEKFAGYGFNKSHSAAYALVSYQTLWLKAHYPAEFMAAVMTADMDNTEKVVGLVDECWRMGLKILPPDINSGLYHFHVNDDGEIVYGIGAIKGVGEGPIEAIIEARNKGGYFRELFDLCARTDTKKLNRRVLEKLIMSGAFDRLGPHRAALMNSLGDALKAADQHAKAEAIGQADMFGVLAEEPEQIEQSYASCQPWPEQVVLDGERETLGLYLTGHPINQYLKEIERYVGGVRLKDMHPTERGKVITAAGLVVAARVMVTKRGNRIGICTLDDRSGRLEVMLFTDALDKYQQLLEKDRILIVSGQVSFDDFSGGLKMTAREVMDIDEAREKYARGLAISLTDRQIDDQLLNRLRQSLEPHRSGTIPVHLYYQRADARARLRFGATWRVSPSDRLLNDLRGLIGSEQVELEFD

As for `CCc1cc(Nc2cc(=O)n(CCCCN3CCN(c4c(F)cc5c(=O)c(C(=O)O)cn(C6CC6)c5c4F)CC3C)c(=O)[nH]2)ccc1C` (stereo unspecified), the inhibition constant Ki in experiment [1], in experiment [2] and in experiment [3] was above 482 µM throughout.

In the case of `CCc1cc(Nc2cc(=O)n(CCCCO)c(=O)[nH]2)ccc1C` [HBEMAU], the concentration for half-maximal inhibition (IC50) in experiment [4] and in experiment [5] was above 500 µM throughout. Besides, the Ki (in general, the dissociation constant of the complex between target and ligand, obtained from inhibition or displacement) in experiment [3] is above 1010 µM.
